Data: patent US6700013B2, “Tricyclic fused heterocycle compounds, process for preparing the same and use thereof” (Nippon Suisan Kaisha, Ltd., priority 1999, dated 2004)

Columns and labels:
[1] = system: pig tracheal smooth muscles; assay: Dilating action on contraction of tracheal smooth muscles (high K+ contraction, Magnus tube); conditions: Sus scrofa, 2 h; K+ contraction (72.7 mM); test substance final concentration 10 μM; two hours after addition; tension before addition = 100%; read-out: Relative Contraction Force (%)
Source text: With the use of pig tracheal muscles, the action of the compounds of the present invention on contraction of tracheal muscles has been investigated. The method refers to “Smooth Muscle Manual” (published by Bun'eido Publishing Co.), pp. 125-137. The trachea cartilage mucous membrane and submucous tissue of a pig trachea were removed to prepare a specimen of tracheal smooth muscles having a major diameter of about 10 mm and a minor diameter of about 1.5 mm. This specimen was suspended in a Magnus tube which was aerated with a mixed gas of 95% of oxygen and 5% of carbon dioxide and contained nutrient solution at 37° C. and a load of 0.8 g was applied to this specimen, and after the tension of the specimen was stabilized, the nutrient solution was replaced with a high concentration K^+ solution (72.7 mM) to provoke K^+ contraction. The procedure of replacing the solution in the Magnus tube with the nutrient solution to wash the solution and provoking K^+ contraction with the high concentration K^+ solution was repeated again until the contraction force became constant. When the tension of the K^+ contraction became constant, each of the compounds described in Table 19 (the structural formula of the Comparative Example being described in the right side of the compound of the above described Example 180) was added to the high concentration K^+ solution as the test substance to measure the change in tension. The test substance was dissolved in dimethyl sulfoxide at a predetermined concentration and added to the high concentration K^+ solution in such a manner that the final concentration came to 10 μM. The trachea cartilage mucous membrane and submucous tissue of a pig trachea were removed to prepare a specimen of tracheal smooth muscles having a major diameter of about 10 mm and a minor diameter of about 1.5 mm. This specimen was suspended in a Magnus tube which was aerated with a mixed gas of 95% of oxygen and 5% of carbon dioxide and contained nutrient solution at 37° C. and a load of 0.8 g was applied to this specimen, and after the tension of the specimen was stabilized, the nutrient solution was replaced with a high concentration K+ solution (72.7 mM) to provoke K+ contraction. The procedure of replacing the solution in the Magnus tube with the nutrient solution to wash the solution and provoking K+ contraction with the high concentration K+ solution was repeated again until the contraction force became constant. When the tension of the K+ contraction became constant, each of the compounds described in Table 19 (the structural formula of the Comparative Example being described in the right side of the compound of the above described Example 180) was added to the high concentration K+ solution as the test substance to measure the change in tension. The test substance was dissolved in dimethyl sulfoxide at a predetermined concentration and added to the high concentration K+ solution in such a manner that the final concentration came to […]. Further, the final concentration of dimethyl sulfoxide added was made 0.3% or less. The change in tension was led to a strain pressure amplifier (“AP-621G3”, manufactured by Nippon Koden Kogyo) through a FD pickup transducer (“TB-611T”, manufactured by Nippon Koden Kogyo) and recorded on a recorder (“R-64V”, manufactured by Rika Electric). When the tension before replacement with the high concentration K+ solution was regarded as 0% and the last tension which was generated by the high concentration K+ solution before the addition of a test substance was regarded as 100%, the contraction force of the tracheal smooth muscle two hours after addition of a test substance was shown as relative percentage. […]

Sprague-Dawley line rats = assay: Toxicity study of two-week repeated-dose oral administration with rats; format: in vivo; conditions: male, oral, 0, 125 and 500 mg/kg/day repeatedly for two weeks
Procedure: In order to study the toxicity by repeated-dose administration of compounds, the compounds were dosed orally to Sprague-Dawley line rats (three male rats per group) with 0, 125 and 500 mg/kg/day (a 0.5 w/v % CMC-Na solution) repeatedly for two weeks.

| Compound | activity at 10 µM [1] [%] | melting point | Results (toxicity findings) (Sprague-Dawley line rats) |
| --- | --- | --- | --- |
| CC1C(=O)c2cc(O)c(O)cc2Sc2ccccc21 (stereo not drawn) [Example 37] | 7.5 |  |  |
| Oc1cc(O)c2c(c1)Oc1cc(-c3cccs3)ccc1CC2 [Example 110] | 10.9 | 194.2 to 195.6 °C |  |
| Oc1cc(O)c2c(c1)Sc1cc(-c3ccco3)ccc1CC2 [Example 124] | 30.3 | 148.5 to 149.6 °C |  |
| Oc1cc(O)c2c(c1)Sc1ccccc1CC2 [Comparative Example, reference compound] | 54.5 |  | Kidney damage were observed with |
| O=C1Cc2c(Cl)cccc2Sc2cc(O)cc(O)c21 [Example 17] | 0 | > 200 °C (dec.) |  |
| O=C1Cc2ccc(-c3ccco3)cc2Sc2cc(O)cc(O)c21 [Example 82] | 22.4 | 234.9 to 238.8 °C |  |
| Oc1cc(O)c2c(c1)Sc1cccc(Cl)c1CC2 [Example 27] | 1.4 | 127.3 to 130.7 °C |  |
| Oc1cc(O)c2c(c1)Oc1cc(-c3ccccc3)ccc1CC2 [Example 7, 7-Phenyl-10,11-dihydrodibenz[b,f]oxepin-1,3-diol] |  | 179.6 to 180.4 °C |  |
| O=C1Cc2ccc(-c3cccs3)cc2Oc2cc(O)cc(O)c21 [Example 5, 3-(2-Thiophene)-7,9-dihydroxy-10,11-dihydrodibenz[b,f]oxepin-10-one] |  | 227.6 to 228.1 °C |  |
| Oc1cc(O)c2c(c1)Sc1ccc(-c3ccco3)cc1CC2 [Example 127] |  | 213.7 to 214.7 °C |  |
| O=C1Cc2cc(-c3ccc(O)c(O)c3)ccc2Oc2cc(O)cc(O)c21 [Example 93] |  | > 250 °C |  |
| CCC1C(=O)c2cc(O)c(O)cc2Sc2cc(SC)ccc21 (stereo not drawn) [Example 46] |  | 179.8 to 183 °C |  |
| CCCC(=O)c1ccc2c(c1)CCc1c(O)cc(O)cc1O2 [Example 128] |  | 157.6 to 157.9 °C |  |
| CCC1C(=O)c2cc(O)c(O)cc2Sc2cc(-c3ccc(-c4ccccc4)cc3)ccc21 (stereo not drawn) [Example 171] |  | > 300 °C |  |
| O=C1c2c(O)cc(O)cc2Sc2ccccc2C1Cc1ccccc1 (stereo not drawn) [Example 40] |  | 67.5 to 68.3 °C |  |
| CCC1C(=O)c2cc(O)c(O)cc2Sc2ccc(-c3ccccc3)cc21 (stereo not drawn) [Example 163] |  | 225.7 to 227.3 °C |  |
| O=C1Cc2ccc(-c3ccc(OC(F)(F)F)cc3)cc2Oc2cc(O)cc(O)c21 [Example 97] |  | 197.7 to 200.8 °C |  |
| CCc1ccc2c(c1)CC(=O)c1c(O)cc(O)cc1S2 [Example 48] |  | 179.1 to 180.1 °C |  |
